Laboratory results reported in patent US10613105B2, “Competitive immunoassay test system for detecting a pyrogen” (FRAUNHOFER-GESELLSCHAFT ZUR FORDERUNG DER ANGEWANDTEN …, priority 2014, dated 2020).

Molecular target: T1, TLR4 (Homo sapiens, UniProt O00206)
T1 construct: purchased Hölzel Diagnostik GmbH 10146-H08B-100; host or cells: baculovirus insect cells
Assay: Surface plasmon resonance spectroscopy (Biacore T200), TLR4 immobilized on NTA sensor chip via his-tag
Assay type: binding
Settings: for Ka in 1/M / Kd: HBS-P+ with 50 μM EDTA, 20° C., 10 μL/min, 5 concentrations
Text: The affinity of a ligand to its receptor describes the tendency thereof to enter into a bond with the receptor. The greater affinity, the greater the association constant Ka is. The strength of the receptor/ligand interaction can be determined experimentally with the aid of surface plasmon resonance spectroscopy (Biacore T200, GE Healthcare) and quantified by the so-called dissociation constant (Kd). Kd is thereby the reciprocal value of Ka, a thermodynamic value, which indicates which portion of the ligand is bound on average to the receptor protein and has the dimension of a concentration. The Biacore chip system is based on a glass slide with a gold film in a flow cell. TLR4 was immobilized on the NTA sensor chip via its his-tag in accordance with the manufacturer's protocol and the to-be-tested ligands, control compounds and LPS were passed over it dissolved in HBS-P+ with 50 μM EDTA at 20° C. with a flow rate of 10 μL/min in respectively 5 concentrations. The bond with TLR4 is measured as a change in the refractive index in the flow cell as compared to a reference cell as a response difference in RU. 1 RU corresponds thereby to 1 pg of bound ligand. After ligand injection, buffer is used for rinsing in order to ideally recreate the initial state, complete disassociation of the ligand.

T1 sequence (O00206 24-631 limits assumed): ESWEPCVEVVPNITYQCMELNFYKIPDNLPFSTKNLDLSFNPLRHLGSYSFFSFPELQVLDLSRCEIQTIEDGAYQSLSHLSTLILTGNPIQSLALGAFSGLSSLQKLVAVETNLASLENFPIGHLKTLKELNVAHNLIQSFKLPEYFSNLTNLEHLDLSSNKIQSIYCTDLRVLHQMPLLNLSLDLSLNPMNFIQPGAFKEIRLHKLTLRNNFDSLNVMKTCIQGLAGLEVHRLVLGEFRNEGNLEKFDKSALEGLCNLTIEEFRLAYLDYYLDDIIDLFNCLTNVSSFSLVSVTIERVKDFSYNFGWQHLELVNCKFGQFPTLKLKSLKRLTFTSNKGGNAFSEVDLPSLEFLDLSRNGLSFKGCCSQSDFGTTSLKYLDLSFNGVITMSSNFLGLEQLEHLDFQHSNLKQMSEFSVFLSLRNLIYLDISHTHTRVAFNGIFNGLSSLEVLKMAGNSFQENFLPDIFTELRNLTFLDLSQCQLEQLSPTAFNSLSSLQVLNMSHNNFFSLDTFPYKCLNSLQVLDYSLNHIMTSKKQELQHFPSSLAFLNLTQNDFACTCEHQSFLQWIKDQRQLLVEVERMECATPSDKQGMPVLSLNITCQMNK

Row | SMILES | Ka in 1/M | Kd | reduction of binding affinity for TLR4 by the TAMRA labeling (T5635346 with vs without TAMRA labeling)
1 | Cc1ccc(C(=O)N2CCOCC2)c(O)c1 [T5635346, (2-hydroxy-4-methylphenyl)-morpholin-4-ylmethanone] | 4,135,649 1/M | 242 nM | 40 fold
2 | CC(C)CN1CCOC(CNC(=O)Nc2ccc3c(c2)OCO3)C1 (centres unmarked) [T5874283, 1-(1,3-benzodioxol-5-yl)-3-[[4-(2-methylpropyl)morpholin-2-yl]methyl]urea] | 9,803,922 1/M | 102 nM | 
